Reference: the Kinase Knowledgebase extract (Sharma et al. 2016)
“And” between values parts separate entries of the source, which are not always exact repeats. Equal entries are not always repeated.

Tests used:
PIK3CA (human) = PIK3CA (human) (UniProt P42336); assay: Inhibition of PIK3CA Kinase Activity
PIK3CG (human) = PIK3CG (human) (UniProt P48736); assay: Inhibition of PIK3CG Kinase Activity
PIK3CB (Human) = PIK3CB (Human) (UniProt P42338); assay: Inhibition of PIK3CB Kinase Activity
PIK3CD (Human) = PIK3CD (Human) (UniProt O00329); assay: Inhibition of PIK3CD Kinase Activity
Chain of PIK3CD (Human) (O00329 whole entry, looked up): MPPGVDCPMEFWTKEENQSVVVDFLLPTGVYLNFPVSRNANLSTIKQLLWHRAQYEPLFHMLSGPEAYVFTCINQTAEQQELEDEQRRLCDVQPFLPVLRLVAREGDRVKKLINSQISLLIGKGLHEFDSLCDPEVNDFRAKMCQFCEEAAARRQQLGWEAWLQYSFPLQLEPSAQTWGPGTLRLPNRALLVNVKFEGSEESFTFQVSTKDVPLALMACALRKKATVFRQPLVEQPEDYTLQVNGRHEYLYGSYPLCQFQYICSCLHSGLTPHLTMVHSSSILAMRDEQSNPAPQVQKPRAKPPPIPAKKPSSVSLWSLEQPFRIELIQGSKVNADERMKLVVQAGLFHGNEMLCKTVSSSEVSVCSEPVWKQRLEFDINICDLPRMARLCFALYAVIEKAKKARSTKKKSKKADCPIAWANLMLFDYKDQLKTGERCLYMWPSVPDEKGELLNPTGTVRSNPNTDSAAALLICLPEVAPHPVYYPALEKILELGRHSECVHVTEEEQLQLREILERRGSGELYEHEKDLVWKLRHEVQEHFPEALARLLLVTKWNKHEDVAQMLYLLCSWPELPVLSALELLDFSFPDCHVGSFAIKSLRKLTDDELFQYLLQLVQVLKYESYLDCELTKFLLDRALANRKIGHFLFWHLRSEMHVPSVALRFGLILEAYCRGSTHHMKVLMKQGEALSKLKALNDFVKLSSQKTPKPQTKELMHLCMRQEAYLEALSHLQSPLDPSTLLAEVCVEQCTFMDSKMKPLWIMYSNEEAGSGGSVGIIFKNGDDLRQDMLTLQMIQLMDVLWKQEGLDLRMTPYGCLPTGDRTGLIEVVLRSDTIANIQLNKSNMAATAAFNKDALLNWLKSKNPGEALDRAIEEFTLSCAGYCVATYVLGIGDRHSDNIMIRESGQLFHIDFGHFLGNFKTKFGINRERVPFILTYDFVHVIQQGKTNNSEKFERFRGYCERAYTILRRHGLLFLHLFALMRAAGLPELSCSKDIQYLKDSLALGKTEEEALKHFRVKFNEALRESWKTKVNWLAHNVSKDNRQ

Chain of PIK3CG (human) (P48736 whole entry, looked up): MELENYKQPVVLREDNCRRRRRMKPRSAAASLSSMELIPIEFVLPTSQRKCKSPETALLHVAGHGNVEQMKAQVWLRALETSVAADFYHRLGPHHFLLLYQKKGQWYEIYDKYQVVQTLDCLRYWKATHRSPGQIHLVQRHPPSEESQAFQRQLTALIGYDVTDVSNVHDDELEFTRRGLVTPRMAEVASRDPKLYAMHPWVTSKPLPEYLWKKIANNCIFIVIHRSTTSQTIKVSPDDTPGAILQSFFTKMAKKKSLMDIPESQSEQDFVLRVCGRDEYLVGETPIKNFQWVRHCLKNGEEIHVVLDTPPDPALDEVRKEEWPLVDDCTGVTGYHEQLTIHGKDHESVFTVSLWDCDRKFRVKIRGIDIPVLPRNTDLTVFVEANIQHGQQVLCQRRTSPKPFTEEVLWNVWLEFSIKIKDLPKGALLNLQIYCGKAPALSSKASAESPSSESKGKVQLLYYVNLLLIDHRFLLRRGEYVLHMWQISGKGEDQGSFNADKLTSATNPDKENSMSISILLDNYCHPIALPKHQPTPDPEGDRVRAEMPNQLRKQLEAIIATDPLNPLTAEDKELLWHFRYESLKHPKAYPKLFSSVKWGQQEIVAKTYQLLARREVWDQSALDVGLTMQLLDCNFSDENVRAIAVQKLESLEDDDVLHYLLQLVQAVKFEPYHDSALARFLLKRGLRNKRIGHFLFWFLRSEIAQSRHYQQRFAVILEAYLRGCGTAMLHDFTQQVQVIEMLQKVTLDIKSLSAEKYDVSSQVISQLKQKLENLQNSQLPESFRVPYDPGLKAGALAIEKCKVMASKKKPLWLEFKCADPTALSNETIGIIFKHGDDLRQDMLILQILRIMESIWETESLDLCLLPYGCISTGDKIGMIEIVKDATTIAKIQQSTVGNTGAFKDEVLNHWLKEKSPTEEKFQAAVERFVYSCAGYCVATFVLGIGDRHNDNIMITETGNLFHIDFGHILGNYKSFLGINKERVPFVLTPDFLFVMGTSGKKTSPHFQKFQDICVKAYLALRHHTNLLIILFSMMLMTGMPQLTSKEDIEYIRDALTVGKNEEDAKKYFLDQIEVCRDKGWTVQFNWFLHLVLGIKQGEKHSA
Chain of PIK3CA (human) (P42336 whole entry, looked up): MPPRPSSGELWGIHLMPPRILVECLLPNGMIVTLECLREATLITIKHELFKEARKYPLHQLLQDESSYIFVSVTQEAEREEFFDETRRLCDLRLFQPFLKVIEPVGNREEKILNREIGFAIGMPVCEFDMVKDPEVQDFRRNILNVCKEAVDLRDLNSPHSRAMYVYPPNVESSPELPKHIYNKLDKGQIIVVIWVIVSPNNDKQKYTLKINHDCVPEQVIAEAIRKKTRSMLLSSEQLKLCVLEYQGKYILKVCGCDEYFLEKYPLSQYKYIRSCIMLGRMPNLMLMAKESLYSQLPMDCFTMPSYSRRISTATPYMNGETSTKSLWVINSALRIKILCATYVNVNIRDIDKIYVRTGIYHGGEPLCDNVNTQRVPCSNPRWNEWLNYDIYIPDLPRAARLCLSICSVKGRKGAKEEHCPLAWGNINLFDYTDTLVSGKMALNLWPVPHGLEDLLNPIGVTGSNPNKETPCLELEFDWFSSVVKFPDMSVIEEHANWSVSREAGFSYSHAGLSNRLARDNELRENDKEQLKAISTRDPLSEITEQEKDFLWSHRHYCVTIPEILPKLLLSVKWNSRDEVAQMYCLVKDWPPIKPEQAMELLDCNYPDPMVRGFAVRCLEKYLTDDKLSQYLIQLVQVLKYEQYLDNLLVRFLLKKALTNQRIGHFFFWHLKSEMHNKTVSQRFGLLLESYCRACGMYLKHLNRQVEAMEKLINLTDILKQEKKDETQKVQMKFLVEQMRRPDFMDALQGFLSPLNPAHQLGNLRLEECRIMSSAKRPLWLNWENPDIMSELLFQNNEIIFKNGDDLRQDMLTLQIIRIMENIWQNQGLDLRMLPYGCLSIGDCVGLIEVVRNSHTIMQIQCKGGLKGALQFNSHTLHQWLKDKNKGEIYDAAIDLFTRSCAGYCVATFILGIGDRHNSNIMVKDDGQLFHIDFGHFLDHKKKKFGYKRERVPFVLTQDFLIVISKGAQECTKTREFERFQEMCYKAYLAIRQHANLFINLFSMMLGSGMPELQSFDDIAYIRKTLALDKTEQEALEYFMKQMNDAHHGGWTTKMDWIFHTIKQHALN
Chain of PIK3CB (Human) (P42338 whole entry, looked up): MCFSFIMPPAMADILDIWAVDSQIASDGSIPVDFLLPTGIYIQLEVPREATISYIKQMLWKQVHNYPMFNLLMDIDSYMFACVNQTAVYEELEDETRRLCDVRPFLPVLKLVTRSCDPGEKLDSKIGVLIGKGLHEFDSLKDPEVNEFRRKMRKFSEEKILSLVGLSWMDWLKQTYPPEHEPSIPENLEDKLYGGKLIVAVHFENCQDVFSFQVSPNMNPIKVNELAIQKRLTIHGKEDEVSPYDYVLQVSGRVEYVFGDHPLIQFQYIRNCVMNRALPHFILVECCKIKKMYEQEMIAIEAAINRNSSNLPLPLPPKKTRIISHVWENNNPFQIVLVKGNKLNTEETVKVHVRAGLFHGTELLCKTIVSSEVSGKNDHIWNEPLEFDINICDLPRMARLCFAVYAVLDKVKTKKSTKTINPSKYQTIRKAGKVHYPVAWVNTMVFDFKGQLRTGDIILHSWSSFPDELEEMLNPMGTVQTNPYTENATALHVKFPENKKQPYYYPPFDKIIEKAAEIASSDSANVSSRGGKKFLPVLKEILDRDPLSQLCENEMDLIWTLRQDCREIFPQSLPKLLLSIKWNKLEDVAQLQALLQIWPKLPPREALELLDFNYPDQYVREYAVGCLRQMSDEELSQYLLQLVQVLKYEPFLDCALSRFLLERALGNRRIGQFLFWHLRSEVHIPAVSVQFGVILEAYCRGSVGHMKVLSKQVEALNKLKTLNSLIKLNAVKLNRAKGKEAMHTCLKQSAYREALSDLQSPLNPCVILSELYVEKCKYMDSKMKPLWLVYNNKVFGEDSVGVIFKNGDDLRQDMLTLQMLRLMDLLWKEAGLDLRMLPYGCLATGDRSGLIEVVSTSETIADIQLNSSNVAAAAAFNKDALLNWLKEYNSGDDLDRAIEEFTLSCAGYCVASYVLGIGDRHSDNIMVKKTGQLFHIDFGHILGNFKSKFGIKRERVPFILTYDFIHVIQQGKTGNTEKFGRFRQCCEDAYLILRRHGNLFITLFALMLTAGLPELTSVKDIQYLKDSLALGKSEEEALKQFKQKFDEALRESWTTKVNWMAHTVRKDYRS

| IC50 (PIK3CA (human)) | IC50 (PIK3CG (human)) | IC50 (PIK3CB (Human)) | IC50 (PIK3CD (Human)) | Compound |
| --- | --- | --- | --- | --- |
| 0.301 µM | 9.07 µM | 2.65 µM | 0.333 µM | CC(=O)Nc1cccc(-c2nc(N3CCOCC3)c3oc4ncccc4c3n2)c1 |
| 5 µM and 0.784 µM | 3.5 µM and 3.24 µM |  |  | Cc1cc(C(C)Nc2ccccc2)c2nc(N3CCOCC3)cc(=O)n2c1 (stereo unspecified) |
